The values below come from patent publication US20240018153A1, “BENZENESULFONAMIDE DERIVATIVES AND USES THEREOF” (2692372 ONTARIO, INC., priority 2020, published 2024).

One experiment relates to β-Tubulin. Briefly: K562 cell lysis and immunoassay, β-tubulin degradation. Details: key: Y: β-tubulin bound in cells and tubulin degradation occurred. The experiment is classed as cell-based. The note with it: K562 cells. As to the method:
K562 cells (ATCC) were cultured in Iscove's Modified Dulbecco's Medium (IMDM) (Wisent) supplemented with 10% FBS and 1% penicillin/streptomycin. Cells were seeded in 6-well plates at 1.71×10^6 cells/well and incubated at 37° C., 5% CO2 for 16 hours. Cells were treated with compounds at the indicated concentrations or DMSO alone and incubated at 37° C., 5% CO2 for 24 hours. Cell suspensions were centrifugated at 1,400 RPM for 5 minutes at room temperature and supernatants were discarded. Cell pellets were resuspended with 1× RIPA buffer (Millipore) and incubated on ice for 15 minutes. Protein lysates were extracted by centrifugating at 20,000 RPM for 20 minutes at 4° C. Proteins were separated and total β-Tubulin levels were quantified by Simple Western Immunoassay (ProteinSimple) using the Protein Normalization Assay Module for Jess (ProteinSimple) according to the manufacturer's protocol, using a protein concentration of 0.05 μg/μl and an antibody targeting β-Tubulin (Abcam) diluted to 1:800. β-Tubulin levels were quantified relative to the Protein Normalization Reagent and subsequently normalized to the DMSO control.

The target in experiment [1] is T1, EGFR (Homo sapiens (Human), UniProt P00533). In words: HTRF KinEASE-TK kinase assay, EGFR. Type of experiment: biochemical. The note with it: 3 h preincubation; for remaining activity at 1 µM: 1 μM compound, read-out: % EGFR Remaining activity vs DMSO (1 μM, 3 h); for remaining activity at 10 µM: 10 μM compound, read-out: % EGFR Remaining activity vs DMSO (10 μM, 3 h). In short, it runs like this: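 Buffer contained 5 mM MgCl2, 2 mM MnCl2 and 1 mM TCEP; compounds at two final concentrations, 1 and 10 uM, with 0.5% DMSO, pre-incubated with the enzyme.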
In general terms: Time-resolved FRET reads energy transfer from a long-lived donor to a nearby acceptor.

The next experiment deals with BMX (Homo sapiens (Human), UniProt P51813). Briefly: HTRF KinEASE-TK kinase assay, BMX. The experiment is classed as biochemical. The note with it: 3 h preincubation; for remaining activity at 1 µM: 1 uM compound; for remaining activity at 10 µM: 10 uM compound. The gist of the method:
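Phosphorylation was quantified by HTRF KinEASE-TK as the 665/620 nm ratio, read 60 min after EDTA stop with SA-XL665 (31.25 nM) and europium antibody. Before the reaction, 3.03 nM BMX was preincubated with compound for 3 hours at room temperature, and the reaction was started with biotinylated substrate plus ATP.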

The target of experiment [2] is T2, BTK (Homo sapiens (Human), UniProt Q06187). Briefly: Ramos RA1 cell lysis and immunoassay, total BTK degradation. The experiment is classed as cell-based. Details: key to % BTK degradation (RAMOS, 24 h): Y: BTK bound in cells and BTK degradation occurred; concentration or dose not given beside the values. The note with it: RAMOS cells. As to the method: (§1) Ramos RA 1 cells (ATCC) were cultured in RPMI-1640 media (Wisent) supplemented with 10% heat-inactivated FBS and 1% penicillin/streptomycin. Cells were seeded in 6-well plates at 1.71×10^6 cells/well and incubated at 37° C., 5% CO2 for 16 hours. Cells were treated with compound at the indicated concentrations or DMSO alone and incubated at 37° C., 5% CO2 for 24 hours. Cell suspensions were centrifugated at 1,400-1,600 RPM for 5 minutes at room temperature and supernatants were discarded. Cell pellets were resuspended with 1× RIPA buffer (Millipore) and incubated on ice for 15 minutes. Protein lysates were extracted by centrifugating at 20,000 RPM for 20 minutes at 4° C. Proteins were separated and total BTK protein levels were quantified by Simple Western Immunoassay (ProteinSimple) using the 12-230 kDa Jess Separation Module according to the manufacturer's protocol, using a protein concentration of 0.25 μg/μl and antibodies targeting BTK (clone #D3H5, Cell Signalling) and β-Actin (clone #AC-15, Santa Cruz) diluted to 1:400 and 1:10, respectively, where the latter was used as a loading control. An equal ratio of rabbit and mouse HRP-conjugated secondary antibodies was used for detection. BTK protein levels were quantified relative to S-Actin loading levels and subsequently normalized to the DMSO control. Phosphorylated BTK levels were quantified using the Protein Normalization Assay Module for Jess (ProteinSimple) according to the manufacturer's protocol, using a protein concentration of 1.5 μg/μl and an antibody targeting pBTK (Y223) (Cell Signalling) diluted to 1:50. Phosphorylated BTK levels were quantified relative to the Protein Normalization Reagent and subsequently normalized to the DMSO control.

For the next experiment, the target named is FGFR4 (Homo sapiens (Human), UniProt P22455). Briefly: HTRF KinEASE-TK kinase assay, FGFR4. The experiment is classed as biochemical. The note with it: for remaining activity at 1 µM: read-out: % FGFR4 Remaining activity vs DMSO (1 μM, 3 h); for remaining activity at 10 µM: read-out: % FGFR4 Remaining activity vs DMSO (10 μM, 3 h). The gist of the method:
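HTRF ratio (Em 665/620 nm) measured 60 min after EDTA stop with SA-XL665 (31.25 nM) and europium antibody reflects phosphorylated biotinylated substrate. Before substrate/ATP addition, 5.12 nM (0.333 ng/ul) FGFR4 sat with compound 3 h at room temperature.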

The target of experiment [3] is T2, BTK. Briefly: HTRF KinEASE-TK kinase assay, BTK. Type of experiment: biochemical. The note with it: 3 h preincubation; for remaining activity at 1 µM: 1 μM compound, read-out: % BTK Remaining activity vs DMSO (1 μM, 3 h); for remaining activity at 10 µM: 10 μM compound, read-out: % BTK Remaining activity vs DMSO (10 μM, 3 h). The gist of the method:
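Read-out was the 665 nm to 620 nm ratio, taken 60 min after detection, reflecting phosphorylated biotinylated substrate. Before this, BTK reacted 45 min with substrate and ATP in kinase buffer supplemented with MnCl2 (10 mM), MgCl2 (5 mM), ATPγS (1 uM) and TCEP (1 mM).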

Another experiment addresses RIPK2 (Homo sapiens (Human), UniProt O43353). Briefly: In vitro RIPK2 inhibition. Type of experiment: biochemical. The note with it: for remaining activity at 1 µM: read-out: % RIPK2 Remaining activity vs DMSO (1 μM, 3 h); for remaining activity at 10 µM: read-out: % RIPK2 Remaining activity vs DMSO (10 μM, 3 h).
A further experiment has as its target JAK3 (Homo sapiens (Human), UniProt P52333). In words: HTRF KinEASE-TK kinase assay, JAK3. The experiment is classed as biochemical. The note with it: for remaining activity at 1 µM: read-out: % JAK3 Remaining activity vs DMSO (1 μM, 3 h); for remaining activity at 10 µM: read-out: % JAK3 Remaining activity vs DMSO (10 μM, 3 h). The gist of the method:
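HTRF read-out: the Em665/Em620 ratio, measured 60 min after stopping with EDTA, 31.25 nM SA-XL665 and 100-fold diluted Eu-antibody, was taken as phosphorylated substrate. Beforehand, 0.21 nM JAK3 (0.0133 ng/µl) sat with compound for 3 h at room temperature, then biotinylated substrate plus ATP started the reaction.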

Experiment [4] concerns the target T1, EGFR. In words: Time-dependent inhibition of EGFR (HTRF). The experiment is classed as biochemical. The note with it: pre-incubation 0-60 min. The procedure: For the time-dependent inhibition experiments, the activity of EGFR kinase was monitored using a HTRF® KinEASE-TK kit from Cisbio (62TK0PEC) as described above. Six compounds showing higher potency during dose response analysis against EGFR, were further evaluated for their change in inhibitory potency over time. Ibrutinib was used as a positive control. The selected compounds were pre incubated with the kinase at 11 different concentrations, ranging from […] to 25 uM final compound concentrations. The pre incubation times were 0, 2, 5, 10, 15, 30, 45 and 60 min. After the preincubation, the reaction was initiated by adding biotinylated substrate and ATP and the reaction was allowed to proceed for 45 min. […] The reaction was terminated by adding 31.25 nM SA-XL665 and 100 fold diluted europium labelled antibody (Eu-Ab), diluted in 1× detection buffer that contained EDTA. After 60 min of incubation, the fluorescence emission was measured at 620 nm and 665 nm. The ratio of Em 665 nm to Em 620 nm was proportional to the amount of substrate phosphorylated by the kinase. Product formation vs pre-incubation time data were fitted to a one phase exponential decay equation using GraphPad Prism. The same product formation vs inhibitor concentration data were also fitted to a log(antagonist) vs. response—Variable slope equation in GraphPad Prism to provide IC50 values at different pre incubation times.

The target of experiment [5] is T2, BTK. In words: Ramos RA1 cell lysis and immunoassay, phospho-BTK (Y223) inhibition. The experiment is classed as cell-based. Further details: key: X: BTK bound and autophosphoration of BTK inhibited in cells. The note with it: RAMOS cells, compound concentration 1 μM. As to the method:
as §1

Chain of RIPK2 (O43353 whole entry, species assumed): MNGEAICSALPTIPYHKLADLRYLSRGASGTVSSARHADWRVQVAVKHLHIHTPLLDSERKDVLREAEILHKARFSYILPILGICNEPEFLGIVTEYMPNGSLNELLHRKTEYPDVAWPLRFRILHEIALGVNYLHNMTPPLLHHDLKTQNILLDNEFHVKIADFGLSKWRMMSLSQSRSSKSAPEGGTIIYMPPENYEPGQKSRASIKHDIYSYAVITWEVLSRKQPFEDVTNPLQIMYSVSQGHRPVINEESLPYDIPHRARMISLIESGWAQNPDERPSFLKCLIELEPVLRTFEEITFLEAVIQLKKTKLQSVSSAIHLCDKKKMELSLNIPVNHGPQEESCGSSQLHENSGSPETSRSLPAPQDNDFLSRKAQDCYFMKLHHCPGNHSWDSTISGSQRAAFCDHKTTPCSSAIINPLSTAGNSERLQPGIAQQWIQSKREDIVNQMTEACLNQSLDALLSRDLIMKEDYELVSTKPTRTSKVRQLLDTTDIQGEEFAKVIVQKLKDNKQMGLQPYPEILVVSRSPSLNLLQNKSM
Chain of BMX (P51813 whole entry): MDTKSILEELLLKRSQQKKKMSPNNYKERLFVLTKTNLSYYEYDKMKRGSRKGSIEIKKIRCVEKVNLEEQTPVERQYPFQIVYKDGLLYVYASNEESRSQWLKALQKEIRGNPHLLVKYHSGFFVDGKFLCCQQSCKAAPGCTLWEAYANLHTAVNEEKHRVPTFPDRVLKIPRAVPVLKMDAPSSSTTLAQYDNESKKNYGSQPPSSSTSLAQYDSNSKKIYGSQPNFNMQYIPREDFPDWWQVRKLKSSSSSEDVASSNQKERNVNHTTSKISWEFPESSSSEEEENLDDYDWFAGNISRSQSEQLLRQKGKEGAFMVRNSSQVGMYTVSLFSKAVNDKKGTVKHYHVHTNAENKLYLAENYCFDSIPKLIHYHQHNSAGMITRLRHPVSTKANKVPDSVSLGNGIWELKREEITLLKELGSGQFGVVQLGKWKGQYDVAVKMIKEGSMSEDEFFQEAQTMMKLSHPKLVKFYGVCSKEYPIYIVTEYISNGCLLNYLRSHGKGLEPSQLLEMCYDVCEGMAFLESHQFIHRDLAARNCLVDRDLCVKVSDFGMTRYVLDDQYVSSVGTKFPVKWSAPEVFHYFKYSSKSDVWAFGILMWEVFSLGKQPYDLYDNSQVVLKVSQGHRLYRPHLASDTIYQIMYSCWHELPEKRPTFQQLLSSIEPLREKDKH
Chain of JAK3 (P52333 781-1124): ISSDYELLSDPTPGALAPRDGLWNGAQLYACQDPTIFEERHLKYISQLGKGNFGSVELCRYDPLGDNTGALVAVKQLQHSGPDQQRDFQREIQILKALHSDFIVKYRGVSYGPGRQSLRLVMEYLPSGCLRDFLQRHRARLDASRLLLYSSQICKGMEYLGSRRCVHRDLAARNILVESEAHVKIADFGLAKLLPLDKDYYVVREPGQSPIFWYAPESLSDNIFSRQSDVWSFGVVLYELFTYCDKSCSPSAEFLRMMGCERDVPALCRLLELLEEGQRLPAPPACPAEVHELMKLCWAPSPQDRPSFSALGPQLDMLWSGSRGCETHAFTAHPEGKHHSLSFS
Chain of FGFR4 (P22455 22-802): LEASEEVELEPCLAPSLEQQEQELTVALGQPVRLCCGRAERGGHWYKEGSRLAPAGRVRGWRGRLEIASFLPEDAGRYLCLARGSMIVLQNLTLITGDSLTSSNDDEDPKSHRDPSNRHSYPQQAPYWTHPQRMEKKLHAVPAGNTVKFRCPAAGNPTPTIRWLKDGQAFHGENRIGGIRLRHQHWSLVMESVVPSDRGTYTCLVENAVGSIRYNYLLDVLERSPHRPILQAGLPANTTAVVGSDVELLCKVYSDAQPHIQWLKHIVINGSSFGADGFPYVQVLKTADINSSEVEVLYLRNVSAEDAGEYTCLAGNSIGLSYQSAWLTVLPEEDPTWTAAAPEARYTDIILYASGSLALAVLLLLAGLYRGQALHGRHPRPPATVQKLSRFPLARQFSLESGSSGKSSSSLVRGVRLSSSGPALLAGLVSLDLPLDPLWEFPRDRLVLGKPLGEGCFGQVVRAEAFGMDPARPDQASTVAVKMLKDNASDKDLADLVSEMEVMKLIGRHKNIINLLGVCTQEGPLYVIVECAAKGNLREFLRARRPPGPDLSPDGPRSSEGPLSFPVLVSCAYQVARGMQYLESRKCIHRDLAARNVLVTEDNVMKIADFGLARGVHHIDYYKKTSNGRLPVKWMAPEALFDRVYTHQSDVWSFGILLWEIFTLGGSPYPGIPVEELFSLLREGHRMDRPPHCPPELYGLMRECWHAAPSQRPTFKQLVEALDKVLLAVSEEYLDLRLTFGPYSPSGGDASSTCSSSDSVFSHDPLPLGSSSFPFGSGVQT
T1 sequence (P00533 25-1210): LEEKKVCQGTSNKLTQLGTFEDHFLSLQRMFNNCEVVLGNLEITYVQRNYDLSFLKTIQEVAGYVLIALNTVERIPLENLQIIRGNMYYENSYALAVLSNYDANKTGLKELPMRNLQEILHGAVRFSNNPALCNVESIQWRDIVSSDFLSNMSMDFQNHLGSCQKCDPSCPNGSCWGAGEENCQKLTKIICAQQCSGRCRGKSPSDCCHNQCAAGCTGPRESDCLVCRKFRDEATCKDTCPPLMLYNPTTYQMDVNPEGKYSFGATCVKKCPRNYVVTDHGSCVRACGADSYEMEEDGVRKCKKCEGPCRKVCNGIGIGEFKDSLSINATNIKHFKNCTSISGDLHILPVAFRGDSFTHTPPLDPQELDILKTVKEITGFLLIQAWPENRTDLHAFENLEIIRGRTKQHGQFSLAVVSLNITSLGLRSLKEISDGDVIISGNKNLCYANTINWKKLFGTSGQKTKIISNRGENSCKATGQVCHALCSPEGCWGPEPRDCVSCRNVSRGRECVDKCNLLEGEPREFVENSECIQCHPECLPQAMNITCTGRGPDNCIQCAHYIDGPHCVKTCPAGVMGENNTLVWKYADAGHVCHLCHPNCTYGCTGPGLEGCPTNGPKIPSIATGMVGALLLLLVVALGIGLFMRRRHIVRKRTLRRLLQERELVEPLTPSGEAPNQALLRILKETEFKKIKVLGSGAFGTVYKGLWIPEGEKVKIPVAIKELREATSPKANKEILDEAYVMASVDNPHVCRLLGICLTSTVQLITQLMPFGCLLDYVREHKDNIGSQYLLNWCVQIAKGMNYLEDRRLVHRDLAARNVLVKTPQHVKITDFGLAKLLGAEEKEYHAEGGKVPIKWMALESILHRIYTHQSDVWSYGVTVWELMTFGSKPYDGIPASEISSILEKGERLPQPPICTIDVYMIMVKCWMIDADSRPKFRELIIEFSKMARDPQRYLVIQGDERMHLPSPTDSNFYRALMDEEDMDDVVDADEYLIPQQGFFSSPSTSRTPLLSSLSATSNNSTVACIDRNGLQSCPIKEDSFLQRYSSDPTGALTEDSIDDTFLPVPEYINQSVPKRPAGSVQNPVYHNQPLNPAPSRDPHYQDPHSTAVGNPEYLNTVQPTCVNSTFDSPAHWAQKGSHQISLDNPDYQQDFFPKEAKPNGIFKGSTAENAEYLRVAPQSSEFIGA
T2 sequence (Q06187 whole entry): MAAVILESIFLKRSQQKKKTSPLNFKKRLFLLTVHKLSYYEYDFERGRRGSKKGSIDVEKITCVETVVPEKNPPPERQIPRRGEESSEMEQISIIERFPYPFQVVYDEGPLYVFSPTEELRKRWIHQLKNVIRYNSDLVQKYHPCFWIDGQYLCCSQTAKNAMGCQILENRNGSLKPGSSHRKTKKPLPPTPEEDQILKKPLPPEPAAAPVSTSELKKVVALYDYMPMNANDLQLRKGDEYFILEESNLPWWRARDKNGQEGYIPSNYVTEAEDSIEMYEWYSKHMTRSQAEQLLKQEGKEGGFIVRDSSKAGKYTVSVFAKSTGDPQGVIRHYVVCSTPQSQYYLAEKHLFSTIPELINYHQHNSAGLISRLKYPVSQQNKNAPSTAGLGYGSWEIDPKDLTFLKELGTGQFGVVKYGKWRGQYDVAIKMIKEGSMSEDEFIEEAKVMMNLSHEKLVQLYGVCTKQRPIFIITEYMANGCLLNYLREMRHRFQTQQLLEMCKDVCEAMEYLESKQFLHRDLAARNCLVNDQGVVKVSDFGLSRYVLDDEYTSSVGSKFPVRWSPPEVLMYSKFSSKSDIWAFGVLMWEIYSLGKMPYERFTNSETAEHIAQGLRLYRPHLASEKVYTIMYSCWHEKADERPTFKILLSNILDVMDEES

In the case of `COc1ccc(N(C)S(=O)(=O)c2c(F)c(F)c(F)c(F)c2C(F)(F)F)cc1F` [Compound I-7, 2,3,4,5-tetrafluoro-N-(3-fluoro-4-methoxyphenyl)-N-methyl-6-(trifluoromethyl) benzenesulfonamide], the “Beta-tubulin - K562 24 hrs (1 μM)” value in the experiment on β-Tubulin was “Y”. Also, the “Beta-tubulin K562, compound concentration, 24 hrs” value (“Beta-tubulin K562” for short) with β-Tubulin (compound concentration 0.5) is on record as “Y”.
`COc1ccc(NC(=O)c2c(F)c(F)c(F)c(F)c2S(=O)(=O)N(C)C)cc1F` [Compound I-9, 2-(N,N-dimethylsulfamoyl)-3,4,5,6-tetrafluoro-N-(3-fluoro-4-methoxyphenyl) benzamide]: the “Beta-tubulin K562” value in the experiment with β-Tubulin (compound concentration 10) is “Y”.
Turning to `COc1ccc(/N=C/c2c(F)c(F)c(F)c(F)c2S(C)(=O)=O)cc1F` [Compound I-11, (E)-N-(3-fluoro-4-methoxyphenyl)-1-(2,3,4,5-tetrafluoro-6-(methylsulfonyl)phenyl) methanimine], the “Beta-tubulin K562” value in the experiment with β-Tubulin (compound concentration 0.5) was “Y”.
For orientation: remaining activity means the activity still measured, relative to the control. As to `CS(=O)(=O)c1c(F)c(F)c(F)c(F)c1C(=O)n1ccc2c(N)ncnc21` [Compound I-49, (4-amino-7H-pyrrolo[2,3-d]pyrimidin-7-yl)(2,3,4,5-tetrafluoro-6-(methylsulfonyl)phenyl)methanone], the remaining activity at 1 µM on EGFR [1] is over 90%; on BMX, 50 to 90%; at FGFR4 it was 50 to 90%; at BTK [3], 50 to 90%; on RIPK2, under 50%; at JAK3 it was over 90%. The remaining activity at 10 µM on EGFR [1] is over 90%; on BMX, under 50%; at FGFR4, under 50%; at BTK [3], under 50%; at RIPK2 it was under 50%; on JAK3 it was over 90%. In addition, the “% BTK degradation (RAMOS, 24 h)” value at BTK [2] is “Y”.
With `COc1ccc(CS(=O)(=O)c2c(F)c(F)c(F)c(F)c2OC(F)F)cc1F` [Compound I-15, 1-(difluoromethoxy)-2,3,4,5-tetrafluoro-6-((3-fluoro-4-methoxybenzyl)sulfonyl) benzene], in the experiment on β-Tubulin (compound concentration 10), the “Beta-tubulin K562” value is given as “Y”.
In the case of `COc1ccc(NS(=O)(=O)c2c(F)c(F)c(F)c(F)c2C(F)(F)F)cc1F` [Compound I-6, 2,3,4,5-tetrafluoro-N-(3-fluoro-4-methoxyphenyl)-6-(trifluoromethyl) benzenesulfonamide], the “Beta-tubulin - K562 24 hrs (1 μM)” value in the experiment with β-Tubulin is “Y”. Moreover, in the experiment with β-Tubulin (compound concentration 10), the “Beta-tubulin K562” value is recorded as “Y”.
Turning to `COc1ccc(CS(=O)(=O)c2c(F)c(F)c(F)c(F)c2OCc2ccccc2)cc1F` [Compound I-16, 1-(benzyloxy)-2,3,4,5-tetrafluoro-6-((3-fluoro-4-methoxybenzyl)sulfonyl)benzene], the “Beta-tubulin K562” value in the experiment with β-Tubulin (compound concentration 10) is “Y”.
Turning to `C=CC(=O)N1CCC[C@@H](n2nc(-c3ccc(Oc4ccccc4)cc3)c3c(N)ncnc32)C1` [ibrutinib, reference compound], the “Time-dependent inhibition of EGFR: product formation versus pre-incubation time” value at EGFR [4] (mono-exponential decay fit) was “concentration-dependent first order loss of enzyme activity”. For the same molecule, the “Time-dependent inhibition of EGFR: IC50 values versus pre-incubation time” value on EGFR [4] was “decrease as pre-incubation times increase”.
For the molecule `COc1ccc(OCc2c(F)c(F)c(F)c(F)c2S(C)(=O)=O)cc1F` [Compound I-17, 1,2,3,4-tetrafluoro-5-((3-fluoro-4-methoxyphenoxy)methyl)-6-(methylsulfonyl) benzene], in the experiment with β-Tubulin (compound concentration 5), the “Beta-tubulin K562” value was “Y”.
With `Nc1ncnc2c1c(-c1ccc(Oc3ccccc3)cc1)nn2[C@@H]1CCCN(C(=O)c2c(F)c(F)c(F)c(F)c2S(N)(=O)=O)C1` [Compound I-35, (R)-2-(3-(4-amino-3-(4-phenoxyphenyl)-1H-pyrazolo[3,4-d]pyrimidin-1-yl)piperidine-1-carbonyl)-3,4,5,6-tetrafluorobenzenesulfonamide], at BTK [5], the “pBTK inhibition (RAMOS, 24 h)” value is recorded as “X”. Further, the remaining activity at 1 µM on EGFR [1] was over 90%; at BMX, under 50%; on FGFR4, 50 to 90%; at BTK [3], under 50%; on RIPK2, over 90%; on JAK3, over 90%. Besides, the remaining activity at 10 µM on EGFR [1] was over 90%; at BMX it was under 50%; at FGFR4 it was under 50%; at BTK [3] it was under 50%; at RIPK2 it was over 90%; on JAK3, over 90%. In addition, the “% BTK degradation (RAMOS, 24 h)” value on BTK [2] is given as “Y”.
